Reference: patent US10251937B2, “Retro-inverso analogs of spadin display increased antidepressant effects” (MEDINCELL, priority 2014, dated 2019)
Square brackets hold non-standard residues; d marks the D form. Peptide text beside a SMILES is read from it.

Assays:
[1] = target: T1, TREK-1 channels (Homo sapiens, UniProt O95069); experiment: TREK-1 current inhibition, whole cell patch clamp on h-TREK-1/HEK cell line; assay type: cell-based; details: for blockade effect on TREK-1 channel activity compared to spadin: 100 nM, n=10 to 12
T1 construct: expressed in transfected cells
T1 sequence (O95069 1-426): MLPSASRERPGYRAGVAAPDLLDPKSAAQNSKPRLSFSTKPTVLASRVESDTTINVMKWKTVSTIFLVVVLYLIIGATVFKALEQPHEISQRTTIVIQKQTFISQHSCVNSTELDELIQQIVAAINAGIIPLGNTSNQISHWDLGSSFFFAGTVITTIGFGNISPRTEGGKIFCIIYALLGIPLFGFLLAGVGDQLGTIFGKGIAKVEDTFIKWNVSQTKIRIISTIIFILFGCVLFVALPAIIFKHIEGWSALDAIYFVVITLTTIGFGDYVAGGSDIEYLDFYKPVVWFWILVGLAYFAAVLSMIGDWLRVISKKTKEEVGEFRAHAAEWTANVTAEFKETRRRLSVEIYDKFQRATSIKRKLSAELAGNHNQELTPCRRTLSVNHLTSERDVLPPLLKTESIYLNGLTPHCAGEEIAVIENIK
Protocol: The human-TREK-1/HEK293 cell line (h-TREK-1/HEK) (Moha ou Maati, H. et al. (2011). PloS one, 6 (10), e25602) and HEK-IKS cell line (Ducroq, J. et al, (2010) Br J Pharmacol, 159(1):93-101) were grown in the presence of 0.5 mg/mL G418 in Dulbecco's modified Eagle's medium supplemented with 10% (v/v) heat inactivated fetal bovine serum containing 1% (v/v) penicillin/streptomycin in an atmosphere of 95% air/5% CO2.
All electrophysiological experiments were performed on h-TREK-1/HEK cells seeded at a density of 20 000 cells/35-mm dish after 2-6 days of culture. All electrophysiological recordings were performed in whole cell configuration of the patch clamp technique. Each current was evaluated by using a RK 400 patch clamp amplifier (Axon Instrument, USA), low-pass filtered at 3 kHz and digitized at 10 kHz using a 12-bit analog-to-digital converter digidata (1322 series, Axon Instrument, USA). All current amplitudes are expressed in current densities. Results were expressed as mean±standard error of the mean (SEM). […] The bath solution contained 150 mM NaCl, 5 mM KCl, 3 mM MgCl2, 1 mM CaCl2 and 10 mM HEPES adjusted to pH 7.4 with NaOH. The pipette solution contained 155 mM KCl, 3 mM MgCl2, 5 mM EGTA and 10 mM HEPES adjusted to pH 7.2 with KOH. TREK-1 currents were evaluated in the presence of a cocktail of potassium channel inhibitors (K+ blockers: 3 mM 4-aminopyridine (4-AP), 10 mM tetraethylammonium (TEA), 10 μM glibenclamide, 100 nM apamin and 50 nM charybdotoxin). All experiments were performed at room temperature (21-22° c.). Stimulation protocols and data acquisition were carried out using a microcomputer (Dell Pentium) with a commercial software and hardware (pClamp 8.2). Currents were recorded by voltage clamp steps to membrane potentials of −100 to +60 mV in 20 mV steps applied from a holding potential of −80 mV. Duration of depolarization pulses were […], and the pulse cycling rate was 5 sec. TREK-1 current amplitudes were evaluated at the end of the stimulation pulses. Cells were continuously superfused with a microperfusion system. Inhibitory effects of spadin and analogs were performed on arachidonic acid pre-activated TREK-1 currents. Spadin and analogs were tested at the unique dose of 100 nM. For both Analog 3 (SEQ ID:4) and Analog 8 (SEQ ID:9) concentration-dependant inhibitions were performed by applying concentrations ranging between 1 nM to 1 μM. IKS currents were activated by voltage clamp steps of membrane potentials from −100 to +100 mV in 20 mV steps applied from a holding potential of −80 mV. Tail currents were generated by repolarization to −40 mV. Duration of both depolarization and repolarization pulses were 2.4 s, and the pulse cycling rate was 10 s. IKR currents were activated by voltage clamp steps of membrane potentials from −100 to +100 mV in 10 mV steps applied from a holding potential of […] and tail currents were generated by a repolarization to […]. Duration of both depolarization and repolarization pulses were 1 s, and the pulse cycling rate was 5 s. The amplitudes of IKS and IKR currents were calculated at both the end of the first pulse and the peak of the tail pulse.
Neuropharmacology 62, 278, (2012)) was used as reference.

[2] = system: C57Bl/6J mice; experiment: Forced Swimming Test (FST) in naive mice; assay type: in vivo; details: acute i.v., 1 μg/kg (FIG. 9A), 30 minutes
Protocol: Naïve male C57Bl/6J mice from 7 to 9 weeks old were used in all experiments (Janvier laboratory). Mice were housed 10 animals per cage under a 12-h light/12-h dark cycle (light on at 8:00 am), in a ventilated room at a temperature of 22±1° C. Animals had free access to water and food (A03; SAFE, Augy, France). All experiments were conducted according to policies on the care and use of laboratory animals of the Society for Neuroscience, and also with respect to national laws on animal use. The local Ethics Committee (CIEPAL) approved the experiments.
Stock solutions were prepared of 2 mg/mL (10^-3M) in distilled water, and before injection spadin solution was diluted in NaCl 0.9% to obtain the different concentrations used for treatments. Corticosterone (Sigma-Aldrich, France) was dissolved in drinking water at the concentration of 3.5 mg/L in the presence of 4.5 g/L of beta-cyclodextrin. […] Fluoxetine (Sigma-Aldrich, France) was dissolved in drinking water at the dose of 80 mg/L and administered during 21 days. For i.p. administration, fluoxetine (TEVA Santé, France) was dissolved in NaCl 0.9% at a concentration of 0.75 mg/mL. The amount injected was 3 mg/kg. Spadin and analogues were administered by i.v. injection. For acute treatment, drugs were administered in a single 100 μL bolus 30 min prior to the beginning of the behavioral tests. For subchronic treatment drugs were injected during 4 consecutive days and behavioral tests were performed on day 5, without additional injection.
The animals were individually placed in a non-escapable cylinder (height 30 cm, diameter 15 cm) filled with 15 cm-water at 22±1° C. The trial was conducted for 6 min. The total period of immobility was manually measured during the last 4 min of the test. A mouse was considered immobile when it remained floating with only slight movements to keep its head above water.

Row | Compound | blockade effect on TREK-1 channel activity compared to spadin [1] | activity in FST after i.v. injection [2] | IC50 ([1]; h-TREK-1/HEK cells, measured at 0 mV (FIG. 8F)) [pM]
1 | Ac-APLPRWSGPIGVSWGLR-NH2 [Analog 2, Ac-APLPRWSGPIGVSWGLR-NH2] | very similar effects to those of spadin |  | 
2 | CC[C@@H](C)[C@H]1NC(=O)CNC(=O)[C@@H](C(C)C)NC(=O)[C@@H](CO)NC(=O)[C@@H](Cc2c[nH]c3ccccc23)NC(=O)CNC(=O)[C@@H](CC(C)C)NC(=O)[C@@H](CCCNC(=N)N)NC(=O)[C@@H](C)NC(=O)[C@H]2CCCN2C(=O)[C@@H](CC(C)C)NC(=O)[C@H]2CCCN2C(=O)[C@@H](CCCNC(=N)N)NC(=O)[C@@H](Cc2c[nH]c3ccccc23)NC(=O)[C@@H](CO)NC(=O)CNC(=O)[C@H]2CCCN2C(=O)[C@@H]([C@H](C)CC)NC(=O)CNC(=O)[C@@H](C(C)C)NC(=O)[C@@H](CO)NC(=O)[C@@H](Cc2c[nH]c3ccccc23)NC(=O)CNC(=O)[C@@H](CC(C)C)NC(=O)[C@@H](CCCNC(=N)N)NC(=O)[C@@H](C)NC(=O)[C@H]2CCCN2C(=O)[C@@H](CC(C)C)NC(=O)[C@H]2CCCN2C(=O)[C@@H](CCCNC(=N)N)NC(=O)[C@@H](Cc2c[nH]c3ccccc23)NC(=O)[C@@H](CO)NC(=O)CNC(=O)[C@H]2CCCN2C1=O [Analog 16, c(rlGwsvGipGswrplparlGwsvGipGswrplpa)] (cyclo([dR][dL]G[dW][dS][dV]G[dI][dP]G[dS][dW][dR][dP][dL][dP][dA][dR][dL]G[dW][dS][dV]G[dI][dP]G[dS][dW][dR][dP][dL][dP][dA])) | increased blockade effect |  | 
3 | CC[C@@H](C)[C@@H](NC(=O)[C@@H](C)NC(=O)[C@H](NC(=O)[C@@H](CO)NC(=O)[C@@H](Cc1c[nH]c2ccccc12)NC(=O)[C@@H](C)NC(=O)[C@@H](CC(C)C)NC(=O)[C@@H](CCCNC(=N)N)NC(C)=O)C(C)C)C(=O)N1CCC[C@@H]1C(=O)N[C@H](C)C(=O)N[C@H](CO)C(=O)N[C@H](Cc1c[nH]c2ccccc12)C(=O)N[C@H](CCCNC(=N)N)C(=O)N1CCC[C@@H]1C(=O)N[C@H](CC(C)C)C(=O)N1CCC[C@@H]1C(=O)N[C@H](C)C(N)=O [Analog 14, Ac-rlawsvaipaswrplpa-NH2] (Ac-[dR][dL][dA][dW][dS][dV][dA][dI][dP][dA][dS][dW][dR][dP][dL][dP][dA]-NH2) | increased blockade effect | strong activity | 
4 | Ac-APLPRWSAPIAVSWALR-NH2 [Analog 13, Ac-APLPRWSAPIAVSWALR-NH2] | increased blockade effect | strong activity | 40
